Values of other authors, collected in US20140172387A1, “PREDICTION OF MOLECULAR BIOACTIVATION” (Genentech, Inc., priority 2012, published 2014).
Values after ≈ are worked out from the molar mass of the structure shown. Where two headings read alike, the source gives them in different places.

Tests used:
[1] = biological target: insect nicotinic acetylcholine receptor (nAChR); conditions: for IC50: insect nAChR
α4β2 mammalian nAChR = α4β2 mammalian nAChR (Homo sapiens, UniProt P17787+P43681)
[2] = not given; remark: listed apart in the source

Chain of α4β2 mammalian nAChR (P43681 29-627 limits assumed): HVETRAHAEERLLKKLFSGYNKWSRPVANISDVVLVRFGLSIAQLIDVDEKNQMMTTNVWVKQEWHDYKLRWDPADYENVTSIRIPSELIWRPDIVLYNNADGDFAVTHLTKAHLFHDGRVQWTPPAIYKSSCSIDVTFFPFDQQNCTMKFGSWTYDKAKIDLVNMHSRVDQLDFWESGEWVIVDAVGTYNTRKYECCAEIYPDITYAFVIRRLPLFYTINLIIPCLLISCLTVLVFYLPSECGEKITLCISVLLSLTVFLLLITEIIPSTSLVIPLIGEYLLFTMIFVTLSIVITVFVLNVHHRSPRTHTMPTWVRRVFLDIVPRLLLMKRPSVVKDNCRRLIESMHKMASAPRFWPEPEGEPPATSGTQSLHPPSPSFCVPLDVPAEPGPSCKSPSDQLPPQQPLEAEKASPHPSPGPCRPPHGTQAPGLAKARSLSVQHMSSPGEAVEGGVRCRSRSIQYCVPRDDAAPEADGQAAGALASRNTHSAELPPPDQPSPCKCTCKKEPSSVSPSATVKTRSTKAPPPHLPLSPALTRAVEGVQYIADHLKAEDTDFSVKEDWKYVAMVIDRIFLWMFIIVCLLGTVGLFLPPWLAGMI
Chain of α4β2 mammalian nAChR (P17787 26-502): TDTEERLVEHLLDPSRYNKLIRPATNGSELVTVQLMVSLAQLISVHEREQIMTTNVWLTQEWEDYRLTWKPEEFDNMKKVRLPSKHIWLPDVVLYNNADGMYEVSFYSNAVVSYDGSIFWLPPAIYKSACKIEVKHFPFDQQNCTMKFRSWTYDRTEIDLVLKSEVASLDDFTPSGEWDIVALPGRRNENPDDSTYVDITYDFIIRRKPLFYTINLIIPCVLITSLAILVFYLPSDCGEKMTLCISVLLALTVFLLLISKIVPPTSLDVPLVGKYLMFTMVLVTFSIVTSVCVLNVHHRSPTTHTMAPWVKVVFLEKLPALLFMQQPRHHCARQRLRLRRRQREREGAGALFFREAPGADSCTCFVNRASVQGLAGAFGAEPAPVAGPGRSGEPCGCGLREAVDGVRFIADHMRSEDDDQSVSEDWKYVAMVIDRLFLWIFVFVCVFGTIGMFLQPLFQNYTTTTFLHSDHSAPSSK

O=[N+]([O-])NC1=NCCN1Cc1ccc(Cl)nc1 [imidacloprid (1), N-[1-[(6-Chloro-3-pyridyl)methyl]-4,5-dihydroimidazol-2-yl]nitramide]
IC50 [1]: 4.6 nM | selectivity for the insect vs. the α4β2 mammalian nAChR ([1]; insect vs. mammalian α4β2 nAChR): > 500 fold | IC50 (α4β2 mammalian nAChR): 2600 nM

N=C1NCCN1Cc1ccc(Cl)nc1 [imidacloprid-NH (6), imidacloprid-NH]
IC50 [1]: 1530 nM | IC50 (α4β2 mammalian nAChR; read-out: IC50): 8.2 nM

C=CCl [vinyl chloride (1), chloroethene]
water solubility (experimental data): 2700 µg/mL

CCc1nn(CCCN2CCN(c3cccc(Cl)c3)CC2)c(=O)n1CCOc1ccccc1 [Nefazodone (1), 1-(3-[4-(3-chlorophenyl)piperazin-1-yl]propyl)-3-ethyl-4-(2-phenoxyethyl)-1H-1,2,4-triazol-5(4H)-one]
water solubility (experimental data) (at pH 7): 6.41 µg/mL (≈ 0.0136 mM)

CC(=O)Nc1ccc(O)cc1 [acetaminophen (1), N-acetyl-para-aminophenol]
water solubility (experimental data) (at 20° C): 12780 µg/mL (≈ 84.5 mM) | excreted unchanged in urine [2]: up to 9 % of therapeutic dose
